The test system of one assay is L-selectin on neutrophils. In kind it is cell-based, human.
Conditions: not given
For the molecule `[Cl][Cd][Cl]` [Cadmium (CdC12)], the “approximate concentration for 100% LOSS of L-selectin from cell surface” value is roughly 1000 µM.

As for `CN(C)CCCN1c2ccccc2Sc2ccc(Cl)cc21` [Chlorpromazine], the “approximate concentration for 100% LOSS of L-selectin from cell surface” value is roughly 50 mM- and the “effective concentrations for induction of L-selectin shedding” value was 10 to 50 µM.

In the case of `NC(=O)CI` [Iodoacetamide], the “approximate concentration for 100% LOSS of L-selectin from cell surface” value is roughly 10 mM-.

Consider `O=S(=O)(O)c1cc(N=C=S)ccc1C=Cc1ccc(N=C=S)cc1S(=O)(=O)O` [DIDS], for which the “approximate concentration for 100% LOSS of L-selectin from cell surface” value was roughly 200 uM-.

Take Thioredoxin: the “approximate concentration for 100% LOSS of L-selectin from cell surface” value is roughly 50 ug/ml-.

For the molecule `COc1cc(-c2ccc(-n3nc(-c4ccccc4)n[n+]3-c3ccc([N+](=O)[O-])cc3)c(OC)c2)ccc1-n1nc(-c2ccccc2)n[n+]1-c1ccc([N+](=O)[O-])cc1` [Nitroblue tetrazolium], the “approximate concentration for 100% LOSS of L-selectin from cell surface” value is listed as roughly 100 uM-.

Turning to `[O-2].[O-2].[O-2].[Sb+3].[Sb+3]` [Antimony (Sb203)], the “approximate concentration for 100% LOSS of L-selectin from cell surface” value was roughly 50 µM.

As for `Clc1ccc(C(c2ccc(Cl)cc2)C(Cl)(Cl)Cl)cc1` [DDT], the “approximate concentration for 100% LOSS of L-selectin from cell surface” value is on record as roughly 50 uM-.

`O=C(O)c1cc(SSc2ccc([N+](=O)[O-])c(C(=O)O)c2)ccc1[N+](=O)[O-]` [DTNB, 5′,5′-dithio-bis(2-nitrobenzoic acid)]: the “approximate concentration for 100% LOSS of L-selectin from cell surface” value is recorded as roughly 1 mM-.

In the case of `O=C(O)CI` [Iodoacetate IA, Iodoacetate], the “approximate concentration for 100% LOSS of L-selectin from cell surface” value is reported as roughly 300 uM-.

Regarding `O=Ic1ccccc1C(=O)O` [Iodosobenzoate], the “approximate concentration for 100% LOSS of L-selectin from cell surface” value was roughly 1 mM-.

`C1COCCO1` [Dioxane]: the “induction of L-selectin shedding (in words)” value was “itself induces L-selectin release”.

In the case of `Cc1c(CBr)n2c(CBr)c(C)c(=O)n2c1=O` [Dibromobimane bBBr, Dibromobimane], the “approximate concentration for 100% LOSS of L-selectin from cell surface” value is roughly 100 um-.

As for `OO` [Hydrogen peroxide], the “approximate concentration for 100% LOSS of L-selectin from cell surface” value is roughly 150 uM-.

Turning to `O=[As]O[As]=O` (stereo not drawn) [Arsenic (As203)], the “approximate concentration for 100% LOSS of L-selectin from cell surface” value is roughly 50 µM.

`CSCC[C@H](NC=O)C(=O)N[C@@H](CC(C)C)C(=O)N[C@@H](Cc1ccccc1)C(=O)O` [fMLP, formyl-methionyl-leucyl-phenylalanine]: the “cell surface L-selectin released” value was “at least 90%”.

In the case of `COc1ccc(C(c2ccc(OC)cc2)C(Cl)(Cl)Cl)cc1` [Methoxychlor], the “approximate concentration for 100% LOSS of L-selectin from cell surface” value was roughly 50 uM-.

As for `CCN(CC)C(=S)SSC(=S)N(CC)CC` [Disulfiram (Antabuse), Disulfiram], the “approximate concentration for 100% LOSS of L-selectin from cell surface” value is listed as roughly 50 uM-.

In the case of `O=S(=O)(F)Cc1ccccc1` [PMSF], the “approximate concentration for 100% LOSS of L-selectin from cell surface” value is roughly 1 mM-.

Consider Thimerosal, for which the “approximate concentration for 100% LOSS of L-selectin from cell surface” value was roughly 500 um-.

For `Cc1c(C)n2c(CBr)c(C)c(=O)n2c1=O` [Monobromobimane mBBr, Monobromobimane], the “approximate concentration for 100% LOSS of L-selectin from cell surface” value is roughly 100 uM-.

On to Protein Disulfide Isomerase, for which the “approximate concentration for 100% LOSS of L-selectin from cell surface” value was roughly 20 ug/ml-.

For the molecule `CCN1C(=O)C=CC1=O` [N-ethylmaleimide], the “approximate concentration for 100% LOSS of L-selectin from cell surface” value was roughly 250 uM-.

On to `NC(=O)N=NC(N)=O` [Azodicarbonamide], for which the “approximate concentration for 100% LOSS of L-selectin from cell surface” value is roughly 1 mM-.

On to `CN(C)C(=O)/N=N/C(=O)N(C)C` [Diamide], for which the “approximate concentration for 100% LOSS of L-selectin from cell surface” value is reported as roughly 1 mM-.

The next assay relates to L-selectin on lymphocytes. Format: cell-based, human.
Conditions: not given
Take `CCCCCCCCCCCCCC(=O)O[C@@H]1[C@@H](C)[C@@]2(O)[C@@H](C=C(CO)C[C@]3(O)C(=O)C(C)=C[C@@H]23)[C@@H]2C(C)(C)[C@]12OC(C)=O` [PMA]: the “time for lymphocytes to shed L-selectin” value is given as roughly 30 min.

As for `CSCC[C@H](NC=O)C(=O)N[C@@H](CC(C)C)C(=O)N[C@@H](Cc1ccccc1)C(=O)O` [fMLP, formyl-methionyl-leucyl-phenylalanine], the “response of lymphocytes (L-selectin shedding)” value is given as “do not respond”.

The subject of the next assay is Mac-1 (CD18/CD11b) on neutrophils. Format: cell-based, human.
Conditions: not given
In the case of `CSCC[C@H](NC=O)C(=O)N[C@@H](CC(C)C)C(=O)N[C@@H](Cc1ccccc1)C(=O)O` [fMLP, formyl-methionyl-leucyl-phenylalanine], the “increase of cell surface Mac-1 expression compared to the ice control” value was 3-10 fold.

The next assay concerns HIV. The settings on record: chlorpromazine: at the concentration of Table I; cited from earlier work.
`NC(=O)N=NC(N)=O` [Azodicarbonamide]: the HIV infectivity entry is reported as “blocks HIV infectivity,”.

Source of the values: patent US6943268B2 (priority 1999, dated 2005).
